Experimental data taken from patent US11976083B2, “Inhibitors of peptidylarginine deiminases” (Gilead Sciences, Inc., priority 2020, dated 2024).

What follows are compounds tested against T1, human PAD4 (Homo sapiens, UniProt Q9UM07) (assay: In vitro PAD4 BAEE biochemical assay). Settings: BAEE substrate 3 mM, 5 nM PAD4, 2 mM calcium chloride; geometric mean of multiple experiments.
T1 construct: human PAD4 (NM_012387), A2-P663, was PCR amplified; His-SUMO (N, cleaved yes); made in house; host or cells: E. coli BL21(DE3)
In short: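 PAD4 5 nM, CaCl2 2 mM, BAEE 3 mM final; 50 mM MOPS pH 7.6, 50 mM NaCl, 0.05% Tween-20, 2 mM DTT. Cpd + enzyme 30 min 25 °C; substrate 2 h 25 °C; EDTA stop; OPA detection 1 h. IC50 4-parameter fit.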

T1 sequence (Q9UM07 2-663): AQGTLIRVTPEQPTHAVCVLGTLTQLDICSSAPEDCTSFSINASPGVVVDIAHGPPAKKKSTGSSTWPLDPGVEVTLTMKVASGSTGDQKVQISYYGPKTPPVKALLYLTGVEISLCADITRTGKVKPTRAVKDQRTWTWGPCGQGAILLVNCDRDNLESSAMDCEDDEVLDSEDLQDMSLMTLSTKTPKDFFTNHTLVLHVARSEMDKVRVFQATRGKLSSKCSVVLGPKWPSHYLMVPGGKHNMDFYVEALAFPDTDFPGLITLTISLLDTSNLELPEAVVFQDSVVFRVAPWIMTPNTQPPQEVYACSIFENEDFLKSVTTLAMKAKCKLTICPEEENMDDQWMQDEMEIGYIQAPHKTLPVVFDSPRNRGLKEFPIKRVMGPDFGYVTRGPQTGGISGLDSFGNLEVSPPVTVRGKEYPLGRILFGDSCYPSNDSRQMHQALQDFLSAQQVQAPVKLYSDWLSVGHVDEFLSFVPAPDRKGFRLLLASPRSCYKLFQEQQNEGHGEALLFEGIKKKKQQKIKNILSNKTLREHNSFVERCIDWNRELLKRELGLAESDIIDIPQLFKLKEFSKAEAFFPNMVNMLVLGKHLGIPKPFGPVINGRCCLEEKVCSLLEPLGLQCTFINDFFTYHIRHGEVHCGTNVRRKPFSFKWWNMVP

| IC50 [nM] | SMILES |
| --- | --- |
| 185 | C[C@H]1NC(=O)[C@@H]2C[C@H]2CCCCCn2c(-c3nc4cc(C(=O)N5CC[C@@H](OC(F)F)[C@@H](N)C5)cc5c4n3CCO5)cc3ccc1nc32 [Example 734, (2~{R},5~{R},7~{R})-14-[6-[(3~{S},4~{R})-3-amino-4-(difluoromethoxy)piperidine-1-carbonyl]-9-oxa-1,3-diazatricyclo[6.3.1.0^{4,12}]dodeca-2,4,6,8(12)-tetraen-2-yl]-2-methyl-3,13,19-triazatetracyclo[11.5.2.0^ {5,7}.0^{16,20}]icosa-1(19), 14,16(20),17-tetraen-4-one] |
| 129 | COc1cc(C(=O)N2CC[C@@H](OC(F)F)[C@@H](N)C2)cc2nc(-c3cc4ccc5nc4n3CCCCCCC(C)(C)C(=O)N[C@@H]5C)n(C)c12 [Example 297, (11~{R})-17-[5-[(3~{S},4~{R})-3-amino-4-(difluoromethoxy)piperidine-1-carbonyl]-7-methoxy-1-methyl-benzimidazol-2-yl]-8,8,11-trimethyl-1,10,19-triazatricyclo[10.5.2.0^{15,18}]nonadeca-12(19),13,15(18),16-tetraen-9-one] |
| 25 | COc1cc(C(=O)N2[C@H]3CC[C@@H]2[C@H](N)C3)cc2nc(-c3cc4ccc5nc4n3C[C@@H]3C[C@@H]3COCCC(=O)N[C@@H]5C)c(C)n12 (single isomer, unassigned) [Example 328, (3˜{R},5˜{S},12˜{R})-18-[7-[(1˜{R},2˜{R},4˜{S})-2-amino-7-azabicyclo[2.2.1]heptane-7-carbonyl]-5-methoxy-3-methyl-imidazo[1,2-a]pyridin-2-yl]-12-methyl-7-oxa-1,11,20-triazatetracyclo[11.5.2.0^{3,5}.0^{16,19}]icosa-13(20),14,16(19),17-tetraen-10-one] |
| 248 | COc1cc(C(=O)N2[C@H]3CC[C@@H]2[C@H](N)C3)cc2nc(-c3cc4ccc5nc4n3CCCCCn3ccc(n3)C(=O)N[C@@H]5C)c(C)n12 [Example 33, (2~{R})-15-[7-[(1~{R},2~{R),4~{S})-2-amino-7-azabicyclo[2.2.1]heptane-7-carbonyl]-5-methoxy-3-methyl-imidazo[1,2-a]pyridin-2-yl]-2-methyl-3,8,14,20,22-pentazatetracyclo[12.5.2.1^{5,8}.0^{17,21}] docosa-1(20),5(22),6,15,17(21),18-hexaen-4-one] |
| 126 | CO[C@@H]1CCN(C(=O)c2cc(F)c3c(c2)nc(-c2cc4ccc5nc4n2CC(F)(F)CCC[C@@H]2C[C@H]2C(=O)N[C@@H]5C)n3[C@H]2C[C@@H]2F)C[C@@H]1N [Example 834, (2~{R},5~{R},7~{R})-14-[5-[(3~{S),4~{R})-3-amino-4-methoxy-piperidine-1-carbonyl]-7-fluoro-1-[(1~{S},2~{S})-2-fluorocyclopropyl]benzimidazol-2-yl]-11,11-difluoro-2-methyl-3,13,19-triazatetracyclo [11.5.2.0^{5,7}.0^{16,20}] icosa-1(19),14,16(20), 17-tetraen-4-one] |
| 97 | CO[C@@H]1CCN(C(=O)c2cc(Cl)c3c(c2)nc(-c2cc4ccc5nc4n2CCCCC[C@@H]2CC2C(=O)N[C@@H]5C)n3C)C[C@@H]1N (some centres unmarked) [Example 505, (2~{R},7~{R})-14-[5-[(3~{S},4~{R})-3-amino-4-methoxy-piperidine-1-carbonyl]-7-chloro-1-methyl-benzimidazol-2-yl]-2-methyl-3,13,19-triazatetracyclo[11.5.2.0^ {5,7}.0^{16,20}]icosa-1(19),14,16(20),17-tetraen-4-one] |
| 683 | COc1cc(C(=O)N[C@H]2CNCC[C@@H]2F)cc2nc(-c3cc4ccc5nc4n3Cc3ccccc3CCCCC(=O)N[C@@H]5C)n(C)c12 [Example 590, ~{N}-[(3~{S},4~{S})-4-fluoro-3-piperidyl]-7-methoxy-1-methyl-2-[(15~{R})-15-methyl-13-oxo-1,14,23-triazatetracyclo[14.5.2.0^ {3,8}.0^{19,22}]tricosa-3(8),4,6,16,18,20,22-heptaen-21-yl] benzimidazole-5-carboxamide] |
| 19 | COc1cc(C(=O)N2C[C@H](N)[C@@H]3CC[C@H]2C3)cc2nc(-c3cc4ccc5nc4n3CCCCCc3nc(Cl)ccc3C(=O)N[C@@H]5C)n(C)c12 [Example 713, (2~{R})-17-[5-[(1~{S}, 4~{R},5~{R})-4-amino-2-azabicyclo[3.2.1]octane-2-carbonyl]-7-methoxy-1-methyl-benzimidazol-2-yl]-8-chloro-2-methyl-3,9,16,22-tetrazatetracyclo [14.5.2.0^{5,10).0^{19,23}] tricosa-1(22),5(10),6,8,17,19(23), 20-heptaen-4-one] |
| 113 | COc1cc(C(=O)N2CCC[C@@H](N)C2)cc2nc(-c3cc4ccc5nc4n3CCCCCCCC(=O)N[C@@H]5C(F)(F)F)n(C)c12 (single isomer, unassigned) [Example 235, (11˜{S})-17-[5-[(3˜{R})-3-aminopiperidine-1-carbonyl]-7-methoxy-1-methyl-benzimidazol-2-yl]-11-(trifluoromethyl)-1,10,19-triazatricyclo[10.5.2.0^{15,18}]nonadeca-12(19),13,15(18),16-tetraen-9-one] |
| 91 | COc1cc(C(=O)N2CC[C@@H](OC)[C@@H](N)C2)cc2nc(-c3cc4ccc5nc4n3CCCCCc3cccc(C(F)F)c3C(=O)N[C@@H]5C)n(C)c12 [Example 397, (2~{R})-17-[5-[(3~{S},4~{R})-3-amino-4-methoxy-piperidine-1-carbonyl]-7-methoxy-1-methyl-benzimidazol-2-yl]-6-(difluoromethyl)-2-methyl-3,16,22-triazatetracyclo[14.5.2.0^{5,10}.0^{19,23}] tricosa-1(22),5(10),6,8,17,19(23),20-heptaen-4-one] |
| 150 | COc1cc(C(=O)N[C@H]2CNCC[C@@H]2F)cc2nc(-c3cc4ccc5nc4n3CCCCCCC3(CC(F)(F)C3)C(=O)N[C@@H]5C)n(C)c12 [Example 400, 2-[(11~{R})-1′,1′-difluoro-11-methyl-9-oxo-spiro[1,10,19-triazatricyclo[10.5.2.0^{15,18}]nonadeca-12(19),13,15(18),16-tetraene-8,3′-cyclobutane]-17-yl]-~{N}-[(3~{S},4~{S})-4-fluoro-3-piperidyl]-7-methoxy-1-methyl-benzimidazole-5-carboxamide] |
| 46 | COCCn1c(-c2cc3ccc4nc3n2CCCCC[C@@H]2C[C@H]2C(=O)N[C@@H]4C)nc2cc(C(=O)N3CCC[C@@H](N)C3)cc(OC)c21 [Example 433, (2~{R},5~{R},7~{R})-14-[5-[(3~{R})-3-aminopiperidine-1-carbonyl]-7-methoxy-1-(2-methoxyethyl)benzimidazol-2-yl]-2-methyl-3,13,19-triazatetracyclo[11.5.2.0^{5,7}.0^{16,20}] icosa-1(19),14,16(20),17-tetraen-4-one] |
| 35 | COc1cc(C(=O)N2CC[C@@H](OC)[C@@H](N)C2)cc2nc(-c3cc4ccc5nc4n3CCCCCc3nc4ccsc4cc3C(=O)N[C@@H]5C)n(C)c12 [Example 788, (2~{R})-20-[5-[(3~{S),4~{R})-3-amino-4-methoxy-piperidine-1-carbonyl]-7-methoxy-1-methyl-benzimidazol-2-yl]-2-methyl-8-thia-3,12,19,25-tetrazapentacyclo[17.5.2.0^ {5,13).0^{7,11}.0^{22,26}] hexacosa-1(24),5(13), 6,9,11,20,22,25-octaen-4-one] |
| 523 | C[C@H]1NC(=O)[C@@H]2C[C@H]2C/C=C/CCn2c(-c3nc4cc(C(=O)N[C@H]5CNCC[C@@H]5F)cc(C(F)(F)F)c4n3C)cc3ccc1nc32 [Example 561, ~{N}-[(3~{S},4~{S})-4-fluoro-3-piperidyl]-1-methyl-2-[(2~{R},5~{R}, 7~{R},9~{E})-2-methyl-4-oxo-3,13,19-triazatetracyclo [11.5.2.0^{5,7}.0^{16,20}]icosa-1(19),9,14,16(20), 17-pentaen-14-yl]-7-(trifluoromethyl) benzimidazole-5-carboxamide] |
| 124 | COc1cc(C(=O)N2CC[C@@H](OC)[C@@H](N)C2)cc2nc(-c3cc4ccc5nc4n3CCCCCc3nccc(F)c3C(=O)N[C@@H]5C)n(C)c12 [Example 656, (2˜{R})-17-[5-[(3˜{S},4˜{R})-3-amino-4-methoxy-piperidine-1-carbonyl]-7-methoxy-1-methyl-benzimidazol-2-yl]-6-fluoro-2-methyl-3,9,16,22-tetrazatetracyclo[14.5.2.0^{5,10}.0^{19,23}]tricosa-1(22),5,7,9,17,19(23),20-heptaen-4-one] |
| 18 | C[C@H]1NC(=O)c2ccc(C(F)F)nc2CCCCCn2c(-c3nc4cc(C(=O)N5C[C@H](N)[C@@H]6CC[C@H]5C6)cc(F)c4n3C3CC3)cc3ccc1nc32 [Example 843, (2~{R})-17-[5-[(1~{S},4~ {R},5~{R})-4-amino-2-azabicyclo[3.2.1]octane-2-carbonyl]-1-cyclopropyl-7-fluoro-benzimidazol-2-yl]-8-(difluoromethyl)-2-methyl-3,9,16,22-tetrazatetracyclo [14.5.2.0^{5,10}.0^{19,23}] tricosa-1(22),5(10),6,8,17, 19(23),20-heptaen-4-one] |
| 49 | C[C@H]1NC(=O)[C@@H]2C[C@H]2CCCCCn2c(-c3nc4cc(C(=O)N[C@H]5CNCC[C@@H]5F)cnc4n3C)cc3ccc1nc32 [Example 188, ˜{N}-[(3˜{S},4˜{S})-4-fluoro-3-piperidyl]-3-methyl-2-[(2˜{R},5˜{R},7˜{R})-2-methyl-4-oxo-3,13,19-triazatetracyclo[11.5.2.0^{5,7}.0^{16,20}]icosa-1(19),14,16(20),17-tetraen-14-yl]imidazo[4,5-b]pyridine-6-carboxamide] |
